In the assay the target is ALK enzyme (Homo sapiens, UniProt Q9UM73). In words: In-vitro ALK kinase inhibitory activity (HTRF kinEASE TK kit). It counts as biochemical. Conditions: inhibitory activity for ALK enzyme, read-out: IC50 range. As to the method: Anaplastic Lymphoma Kinase (ALK) Inhibitory Activity The in-vitro kinase assay was performed using the HTRF kinEASE TK kit available from Cisbio. The operation steps are indicated in the instructions of the kit. This method was used to detect the inhibitory effect of the compound to be tested on the activity of ALK enzymes in vitro, including wild-type ALK (Cat.PV3867, Invitrogen), ALK L1196M (Cat. PV6168, Life technologies), and ALK F1174L (Cat. PV6160, Life technologies). The specific operation steps were as follows. […] In addition to the control wells, 4 μL of the diluted compound solution to be tested was added to the reaction wells, and 4 μL of the 2.5% DMSO solution corresponding to the ALK enzyme previously formulated was added to the control wells. (2) 2 μL of a TK-biotin substrate solution previously formulated in a substrate concentration corresponding to the ALK enzyme was added to all reaction wells. (3) 2 μL of a previously prepared enzyme solution of corresponding concentration was added to all the reaction wells except the negative wells, and 2 μL of the 1× kinase buffer corresponding to the enzyme was added to the negative wells to make up the volume. The plate was sealed with a membrane, and incubated for 10 min at room temperature after mixing uniformly, such that the compounds were bond to the enzyme fully. (4) 2 μL of an ATP solution in a concentration corresponding to the ALK enzyme was added to all the reaction wells to initiate the kinase reaction, where the enzyme reaction time by ALK was 60 minutes. (5) An ALK test solution was prepared 5 minutes before the end of the kinase reaction. Streptavidin-XL665 and TK antibody europium cryptate (1:100) solutions for assay having a concentration corresponding to the enzyme were prepared using the detection buffer in the kit. (6) After the completion of the kinase reaction, 5 μl of diluted Streptavidin-XL665 was added to all the reaction wells respectively, and mixed uniformly, and then the diluted TK antibody europium cryptate solution for assay was added immediately. (7) The plate was sealed, mixed uniformly and allowed to react at room temperature for 1 h. The fluorescence signal (excitation at 320 nm, and emission at 665 nm and 615 nm) was detected using the ENVISION instrument (Perkinelmer). The inhibition rate for each well was calculated from the values of the fully active wells and the background signal wells. The values of replicated wells were averaged, and the half-maximal inhibitory activity (IC50) of each compound to be tested was fitted with a professional drawing analysis software PRISM 5.0.
Chain of ALK enzyme (Q9UM73 19-1620 limits assumed): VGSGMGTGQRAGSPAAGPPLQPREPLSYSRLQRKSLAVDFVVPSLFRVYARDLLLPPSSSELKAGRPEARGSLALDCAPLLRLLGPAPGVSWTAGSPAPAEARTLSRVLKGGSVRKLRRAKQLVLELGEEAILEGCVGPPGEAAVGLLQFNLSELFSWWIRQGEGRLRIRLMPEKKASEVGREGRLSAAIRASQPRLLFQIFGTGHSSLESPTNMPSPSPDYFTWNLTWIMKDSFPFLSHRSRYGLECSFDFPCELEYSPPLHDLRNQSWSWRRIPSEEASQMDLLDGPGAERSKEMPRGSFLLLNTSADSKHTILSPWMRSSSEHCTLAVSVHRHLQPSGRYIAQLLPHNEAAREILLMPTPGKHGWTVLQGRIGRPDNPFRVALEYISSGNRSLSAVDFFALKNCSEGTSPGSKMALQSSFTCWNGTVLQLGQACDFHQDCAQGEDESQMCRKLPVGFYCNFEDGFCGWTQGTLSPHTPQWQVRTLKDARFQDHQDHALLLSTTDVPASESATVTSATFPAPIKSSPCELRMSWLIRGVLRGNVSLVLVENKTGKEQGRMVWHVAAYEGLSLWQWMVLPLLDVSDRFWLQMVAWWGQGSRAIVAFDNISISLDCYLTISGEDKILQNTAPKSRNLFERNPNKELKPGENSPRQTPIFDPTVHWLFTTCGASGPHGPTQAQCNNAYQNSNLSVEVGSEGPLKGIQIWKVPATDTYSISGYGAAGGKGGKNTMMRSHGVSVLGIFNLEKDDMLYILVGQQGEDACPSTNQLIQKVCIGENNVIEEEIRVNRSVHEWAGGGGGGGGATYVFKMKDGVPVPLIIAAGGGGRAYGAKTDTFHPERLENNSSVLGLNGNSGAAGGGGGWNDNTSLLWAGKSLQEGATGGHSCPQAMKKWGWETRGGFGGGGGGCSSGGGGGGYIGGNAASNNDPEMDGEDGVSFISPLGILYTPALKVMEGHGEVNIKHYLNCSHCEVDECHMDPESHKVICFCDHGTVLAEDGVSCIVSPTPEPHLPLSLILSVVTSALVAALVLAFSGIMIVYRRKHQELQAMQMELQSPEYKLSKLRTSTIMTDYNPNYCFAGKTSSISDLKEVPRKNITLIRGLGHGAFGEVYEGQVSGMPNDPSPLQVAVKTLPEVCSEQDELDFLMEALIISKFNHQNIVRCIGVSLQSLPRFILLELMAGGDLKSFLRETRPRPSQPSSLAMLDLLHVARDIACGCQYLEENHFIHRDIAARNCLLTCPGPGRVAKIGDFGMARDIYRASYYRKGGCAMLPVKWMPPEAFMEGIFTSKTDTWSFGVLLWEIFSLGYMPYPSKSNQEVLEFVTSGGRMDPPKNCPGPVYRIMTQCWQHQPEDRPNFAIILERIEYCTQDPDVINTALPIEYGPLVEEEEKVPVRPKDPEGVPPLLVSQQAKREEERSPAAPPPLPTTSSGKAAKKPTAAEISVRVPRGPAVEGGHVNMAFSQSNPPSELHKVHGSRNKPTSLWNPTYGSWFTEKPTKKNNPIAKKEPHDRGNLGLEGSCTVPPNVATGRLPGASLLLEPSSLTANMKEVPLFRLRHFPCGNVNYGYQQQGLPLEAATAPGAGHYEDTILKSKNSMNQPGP

Consider `COc1cc(C2CCNCC2)c(C)cc1Nc1ncc(Cl)c(Nc2ccccc2P(C)(C)=O)n1` [Compound I-38, 5-chloro-N4-(2-(dimethylphosphoryl)phenyl)-N2-(2-D3-methoxy-5-methyl-4-(piperidin-4-yl)phenyl)pyrimidin-2,4-diamine], for which the half-maximal inhibitory concentration (IC50) (as a rule, the point on the concentration scale where inhibition reaches its midpoint) lay within 1 to 10 nM.
Consider `COc1cc(N2CCC(N3CCOCC3)CC2)ccc1Nc1nc(Nc2ccccc2S(=O)(=O)C(C)C)c2ccccc2n1` [Compound I-28, N4-(2-(isopropylsulfonyl)phenyl)-N2-(2-D3-methoxy-4-(4-morpholinopiperidin-1-yl)phenyl)quinazolin-2,4-diamine], for which the IC50 was in the range of 10 to 100 nM.
For the molecule `COc1cc(N2CCNCC2)ccc1Nc1ncnc(Nc2ccccc2S(=O)(=O)C(C)C)n1` [Compound I-41, N2-(2-D3-methoxy-4-(piperazin-1-yl)phenyl)-N4-(2-(isopropylsulfonyl)phenyl)-1,3,5-triazin-2,4-diamine], the concentration for half-maximal inhibition (IC50) was in the range of 1 to 10 nM.
Next, `CCc1cc(Nc2ncc(Cl)c(Nc3ccccc3S(=O)(=O)C(C)C)n2)c(OC)cc1C1CCNCC1` [Compound 44, reference compound]: 10 to 100 nM; `COc1cc(C2CCNCC2)c(C)cc1Nc1nc(Nc2ccccc2S(=O)(=O)C(C)C)c2ccccc2n1` [Compound I-29, N4-(2-(isopropylsulfonyl)phenyl)-N2-(2-D3-methoxy-5-methyl-4-(piperidin-4-yl)phenyl)quinazolin-2,4-diamine]: 10 to 100 nM.
The value for `COc1cc(N2CCC(N3CCC(N)CC3)CC2)ccc1Nc1ncc(Cl)c(Nc2ccccc2S(=O)(=O)C(C)C)n1` [Compound I-34, N2-(4-(4-amino-[1,4′-bipyridin]-1′-yl)-2-D3-methoxyphenyl)-5-chloro-N4-(2-(isopropylsulfonyl)phenyl)pyrimidin-2,4-diamine] was 1 to 10 nM; that for `COc1cc(N2CCC(N3CCSCC3)CC2)ccc1Nc1ncc(Cl)c(Nc2ccccc2S(=O)(=O)C(C)C)n1` [Compound I-33, 5-chloro-N4-(2-(isopropylsulfonyl)phenyl)-N2-(2-D3-methoxy-4-(4-thiomorpholinopiperidin-1-yl)phenyl)pyrimidin-2,4-diamine] was 1 to 10 nM.
For `COc1cc(N2CCC(N(C)C)CC2)ccc1Nc1nc(Nc2ccccc2S(=O)(=O)C(C)C)c2ccsc2n1` [Compound I-26, N2-(4-(4-(dimethylamino)piperidin-1-yl)-2-D3-methoxyphenyl)-N4-(2-(isopropylsulfonyl)phenyl)thieno[2,3-d]pyrimidin-2,4-diamine], the IC50 lay within 10 to 100 nM.
As to `COc1cc(C2CCNCC2)c(C)cc1Nc1ncc([N+](=O)[O-])c(Nc2ccccc2S(=O)(=O)C(C)C)n1` [Compound I-10, N4-(2-(isopropylsulfonyl)phenyl)-N2-(2-D3-methoxy-5-methyl-4-(piperidin-4-yl)phenyl)-5-nitropyrimidin-2,4-diamine], the IC50 was in the range of 1 to 10 nM.
The value for `COc1cc(C2CCNCC2)c(C)cc1Nc1ncc(C#N)c(Nc2ccccc2S(=O)(=O)C(C)C)n1` [Compound I-6] was 1 to 10 nM; that for `COc1cc(C2CCNCC2)c(C)cc1Nc1ncnc(Nc2ccccc2S(=O)(=O)C(C)C)n1` [Compound I-40, N2-(2-(isopropylsulfonyl)phenyl)-N4-(2-D3-methoxy-5-methyl-4-(piperidin-4-yl)phenyl)-1,3,5-triazin-2,4-diamine] was 1 to 10 nM.
For `COc1cc(C2CCNCC2)c(C)cc1Nc1nc(Nc2ccccc2S(=O)(=O)C(C)C)c2[nH]ccc2n1` [Compound I-31, N4-(2-(isopropylsulfonyl)phenyl)-N2-(2-D3-methoxy-5-methyl-4-(piperidin-4-yl)phenyl)-5H-pyrrolo[3,2-d]pyrimidin-2,4-diamine], the IC50 lay within 10 to 100 nM.
The value for `CCc1cnc(Nc2cc(C)c(C3CCNCC3)cc2OC)nc1Nc1ccccc1S(=O)(=O)C(C)C` [Compound I-9, 5-ethyl-N4-(2-(isopropylsulfonyl)phenyl)-N2-(2-D3-methoxy-5-methyl-4-(piperidin-4-yl)phenyl)pyrimidin-2,4-diamine] was 1 to 10 nM; that for `COc1cc(C2CCNCC2)c(C)cc1Nc1nc(Nc2ccccc2S(=O)(=O)C(C)C)c2cc[nH]c2n1` [Compound I-30, N4-(2-(isopropylsulfonyl)phenyl)-N2-(2-D3-methoxy-5-methyl-4-(piperidin-4-yl)phenyl)-7H-pyrrolo[2,3-d]pyrimidin-2,4-diamine] was 10 to 100 nM; that for `COc1cc(C2CCNCC2)c(C#N)cc1Nc1ncc(Cl)c(Nc2ccccc2S(=O)(=O)C(C)C)n1` [Compound I-23, 5-((5-chloro-4-((2-(isopropylsulfonyl)phenyl)amino)pyrimidin-2-yl)amino)-4-D3-methoxy-2-(piperidin-4-yl)benzonitrile] was 1 to 10 nM.
Next, `COc1cc(C2CCNCC2)ccc1Nc1ncnc(Nc2ccccc2S(=O)(=O)C(C)C)n1` [Compound I-39, N2-(2-(isopropylsulfonyl)phenyl)-N4-(2-D3-methoxy-4-(4-piperidin-4-yl)phenyl)-1,3,5-triazin-2,4-diamine]: 1 to 10 nM; `COc1cc(C2CCNCC2)c(F)cc1Nc1ncc(Cl)c(Nc2ccccc2S(=O)(=O)C(C)C)n1` [Compound I-21, 5-chloro-N2-(5-fluoro-2-D3-methoxy-4-(piperidin-4-yl)phenyl)-N4-(2-(isopropylsulfonyl)phenyl)pyrimidin-2,4-diamine]: 1 to 10 nM; `CCOc1cc(C2CCNCC2)c(Cl)cc1Nc1ncc(Cl)c(Nc2ccccc2S(=O)(=O)C(C)C)n1` [Compound I-19, 5-chloro-N2-(5-chloro-2-D5-ethoxy-4-(piperidin-4-yl)phenyl)-N4-(2-(isopropylsulfonyl)phenyl)pyrimidin-2,4-diamine]: 1 to 10 nM.
Next, `[2H]C([2H])([2H])Oc1cc(C2CCNCC2)c(C)cc1Nc1ncc(C(F)(F)F)c(Nc2ccccc2S(=O)(=O)C(C)C)n1` [Compound I-5, N4-(2-(isopropylsulfonyl)phenyl)-N2-(2-methoxy-5-methyl-4-(piperidin-4-yl)phenyl)-5-(trifluoromethyl)pyrimidin-2,4-diamine]: 1 to 10 nM; `COc1cc(N2CCC(N(C)C)CC2)ccc1Nc1nc(Nc2ccccc2S(=O)(=O)C(C)C)c2sccc2n1` [Compound I-27, N2-(4-(4-(dimethylamino)piperidin-1-yl)-2-D3-methoxyphenyl)-N4-(2-(isopropylsulfonyl)phenyl)thieno[3,2-d]pyrimidin-2,4-diamine]: 10 to 100 nM; `COc1cc(C2CCNCC2)c(C)cc1Nc1ncc(Cl)c(Nc2ccccc2S(=O)(=O)C(C)C)n1` [Compound 45, reference compound]: 10 to 100 nM.
For the molecule `COc1cc(C2CCNCC2)c(C)cc1Nc1ncc(OC)c(Nc2ccccc2S(=O)(=O)C(C)C)n1` [Compound I-7, N4-(2-(isopropylsulfonyl)phenyl)-5-methoxy-N2-(2-D3-methoxy-5-methyl-4-(piperidin-4-yl)phenyl)pyrimidin-2,4-diamine], the IC50 is 1 to 10 nM.
Next, `COc1cc(C2CCNCC2)c(C(F)(F)F)cc1Nc1ncc(Cl)c(Nc2ccccc2S(=O)(=O)C(C)C)n1` [Compound I-22, 5-chloro-N4-(2-(isopropylsulfonyl)phenyl)-N2-(2-D3-methoxy-4-(piperidin-4-yl)-5-(trifluoromethyl)phenyl)pyrimidin-2,4-diamine]: 1 to 10 nM; `COc1cc(N2CCC(N3CCN(C)CC3)CC2)ccc1Nc1ncnc(Nc2ccccc2S(=O)(=O)C(C)C)n1` [Compound I-43, N2-(2-(isopropylsulfonyl)phenyl)-N4-(2-D3-methoxy-4-(4-(4-methylpiperazin-1-yl)piperidin-1-yl)phenyl)-1,3,5-triazin-2,4-diamine]: 1 to 10 nM; `COc1cc(C2CCNCC2)c(C)cc1Nc1nc(Nc2ccccc2S(=O)(=O)C(C)C)c2ccsc2n1` [Compound I-32, N4-(2-(isopropylsulfonyl)phenyl)-N2-(2-D3-methoxy-5-methyl-4-(piperidin-4-yl)phenyl)thieno[2,3-d]pyrimidin-2,4-diamine]: 10 to 100 nM.
For the molecule `COc1cc(C2CCNCC2)c(C)cc1Nc1ncc(Br)c(Nc2ccccc2S(=O)(=O)C(C)C)n1` [Compound I-4, 5-bromo-N4-(2-(isopropylsulfonyl)phenyl)-N2-(2-D3-methoxy-5-methyl-4-(piperidin-4-yl)phenyl)pyrimidin-2,4-diamine], the IC50 lay within 1 to 10 nM.
Next, `COc1cc(N2CCC(N(C)C)CC2)ccc1Nc1ncc(Cl)c(Nc2ccccc2P(C)(C)=O)n1` [Compound I-37, (2-((5-chloro-2-((4-(4-(dimethylamino)piperidin-1-yl)-2-D3-methoxyphenyl)amino)pyrimidin-4-yl)amino)phenyl)dimethylphosphorus oxide]: 1 to 10 nM.

Source of the values: patent US10647694B2, “Diphenylaminopyrimidine and triazine compound, and pharmaceutical composition and use thereof” (ARROMAX PHARMATECH CO., LTD., priority 2016, dated 2020).
